Reference: patent US11103603B2, “18F-labeled compounds for PET imaging and uses thereof” (The University of North Carolina at Chapel Hill, priority 2016, dated 2021)

What was measured:
IDO1 enzyme = IDO1 enzyme (Homo sapiens, UniProt P14902); assay: IDO1 enzyme assay (substrate test, absorbance at 490 nm); format: biochemical; conditions: for substrate to IDO1 enzyme: FIG. 7A; for absorbance at 490 nm: reaction containing the compound, results from 3 independent assays, control reaction had no absorbance
Protocol: (§1) (D) Decay-corrected whole-body small PET images of B16F10 melanoma after 30 min injection of 5-[^18]F-AMT.
(§2) Among the agents synthesized, 5-[^18F]F-AMT was first evaluated in vitro. In order to ensure that 5-[^18F]F-AMT could be used for IDO imaging, cell- and enzyme-based assays were performed. It was first tested whether 5-[^18F]F-AMT is a substrate for the IDO enzyme, and the result compared with that of the natural substrate Trp and a known IDO agent, α-methyl-L-tryptophan (AMT). […] Therefore, a cell-based assay was performed to further evaluate the agents. The uptake of 5-[^18F]F-AMT in IFNγ-treated cells was 3.474±0.6451% compared with 0.50±0.28% in control cells after 1 h incubation (p<0.001) (FIG. 7C). […] The serotonin pathway is a competitive metabolic route for Trp and its derivatives. In the first step Tph adds a hydroxyl group to position 5 of the indole ring. It was evaluated whether the introduction of fluorine at the 5-position would affect metabolism by Tph. As shown in) (FIG. 7B), immediately after adding L-Trp to the reaction system containing the tryptophan hydroxylase enzyme, the fluorescence signal increased from a baseline value of −0.266 to 40.885 and reached a peak value 58.350 at 26 min. Immediately after adding AMT to the reaction system, the fluorescence signal increased from a baseline value of −0.312 to 21.145 and reached a peak value of 36.607 at 34 min.

[1] = test system: tryptophan hydroxylase enzyme; assay: Protein based tryptophan hydroxylase (Tph) assay, fluorescence signal; format: biochemical; conditions: for substrate quality for Tph: compared with Trp and AMT; for fluorescence signal immediately after adding compound: immediately after adding to reaction system containing tryptophan hydroxylase; for fluorescence signal peak value: peak of time course
Protocol: as §2

HeLa cells = assay: Cell uptake of tracer in HeLa cells with or without IFNγ treatment and NLG919; format: cell-based
Protocol: as §1, §2

B16F10 melanoma = assay: Small animal PET imaging of B16F10 melanoma tumor xenograft mouse model; format: in vivo; conditions: 200 μCi injected, image at 30 min
Protocol: as §1
FIGS. 8A-8B show (A) decay-corrected whole-body small PET images of B16F10 melanoma 0.5 h, 1.4 h, and 20 h after injection of ^124I-AMT; (B) decay-corrected whole-body small PET images of B16F10 melanoma 50 min after injection of ^18F—N-Me-Trp.
A tumor xenograft mouse model was produced with a B16F10 melanoma. 200 μCi of 5-^18F-AMT was injected and a PET image was obtained at 30 min. (FIG. 7D).
To test the effectiveness of therapeutic compounds of the invention, a tumor […] xenograft mouse model was produced with a B16F10 melanoma. 1 (FIG. 8A) or ^18F—N-Me-Trp (FIG. 8B) were injected in the tail vein and PET images obtained.

Chain of IDO1 enzyme (P14902 whole entry, species assumed): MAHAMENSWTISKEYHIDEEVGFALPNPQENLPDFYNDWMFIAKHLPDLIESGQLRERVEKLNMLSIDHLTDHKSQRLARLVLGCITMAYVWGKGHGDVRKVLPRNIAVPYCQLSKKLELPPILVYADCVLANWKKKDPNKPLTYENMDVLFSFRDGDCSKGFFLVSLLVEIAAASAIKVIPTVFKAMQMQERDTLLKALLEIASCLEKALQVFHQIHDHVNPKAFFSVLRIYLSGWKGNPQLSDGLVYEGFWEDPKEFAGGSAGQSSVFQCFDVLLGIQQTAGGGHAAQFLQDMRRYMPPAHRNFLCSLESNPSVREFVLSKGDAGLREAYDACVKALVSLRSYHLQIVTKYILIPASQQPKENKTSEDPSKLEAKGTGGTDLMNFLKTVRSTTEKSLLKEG

Row | SMILES | substrate to IDO1 enzyme (IDO1 enzyme) | absorbance at 490 nm (IDO1 enzyme) | time at which peak fluorescence was reached [1] [min] | substrate quality for Tph [1] | fluorescence signal immediately after adding compound [1] | fluorescence signal peak value [1] | increase of HeLa cells uptake after IFN-γ treatment (HeLa cells; HeLa cells, IFN-γ treated vs untreated) [times] | uptake in IFNγ-treated cells incubated with NLG919 (HeLa cells; IFNγ-treated cells + IDO1 inhibitor NLG919) [%] | uptake in IFNγ-treated cells (HeLa cells; IFNγ-treated cells, 1 h incubation) [%] | uptake in control cells (HeLa cells; control cells (no IFNγ), 1 h incubation) [%] | PET image of tumor (B16F10 melanoma)
1 | CC(N)(Cc1c[nH]c2ccc(F)cc12)C(=O)O (stereo not shown) [5-F-AMT] | substrates | 0.16±0.03 | 25 | not a good substrate | 5.635 | 8.176 | – | – | – | – | –
2 | CC(N)(Cc1c[nH]c2ccc([18F])cc12)C(=O)O (stereo not shown) [5-[^18F]F-AMT] | – | – | – | worse substrate | – | – | 7 | 0.88±0.12 | 3.474±0.6451 | 0.50±0.28 | clearly shows the tumor
3 | C[C@](N)(Cc1c[nH]c2ccccc12)C(=O)O [AMT, α-methyl-L-tryptophan] | substrates | 0.19±0.02 | 34 | – | 21.145 | 36.607 | – | – | – | – | –
4 | N[C@@H](Cc1c[nH]c2ccccc12)C(=O)O [L-Trp, L-tryptophan] | substrates | 0.21±0.01 | 26 | – | 40.885 | 58.350 | – | – | – | – | –
